Ends that are not written are not given here.
Target: T1, GST-SURF4^49-60 (Homo sapiens, UniProt O15260)
T1 construct: SURF4 (49-60) in the same buffer was in the calorimetric cell; made in house; host or cells: Escherichia coli
Assay: Isothermal titration calorimetry, CW peptide vs GST-SURF4(49-60)
Format: binding
Details: ITC (PEAQ-ITC); 500 µM CW peptide into 50 µM GST-SURF4 (49-60); 10 mM PBS, 0.5 mM HEPES, 6.3 mM sorbitol, 1.75 mM KOAc, 25 µM Mg(OAc)2, 25 µM BSA, 0.003% Triton, pH 7.2; one set of site model; read-out: Kd of CW peptides for GST-SURF4^49-60
Excerpt: To measure a direct interaction, we immobilized the first luminal loop of SURF4 (SEQRDYIDTTWNC, referred to as SURF4 luminal peptides) on beads and then performed pull down analysis using purified GST and Shh^25-49-GST as prey (Fig. 3H). […] As an additional test, we performed pull down analysis using peptides corresponding to the CW motif (KRRHPKKC, referred to as CW peptides) as bait and purified GST-SURF4^49-60 as prey (Fig. 3J). […] We then immobilized peptides corresponding to the first intracellular loop of Frizzled6 (VRRFRYPERPC, referred to as RRFR) ([27]) on beads.
The samples were centrifuged at 55,000 rpm in a TLS55 rotor in a Beckman ultracentrifuge for 2 hr at 4 °C.
After centrifugation, fractions were collected from the top to the bottom of the tube, and the top fraction was analyzed by SDS-PAGE and immunoblotting.
Isothermal titration calorimetry (ITC)
We utilized a commercial isothermal titration calorimeter (PEAQ-ITC system, MicroCal, Malvern Panalytical, United Kingdom) to perform titration experiments. In these experiments, a 500 µM solution of CW peptide in a diluted binding buffer (10 mM PBS, 0.5 mM HEPES, 6.3 mM sorbitol, 1.75 mM KOAc, 25 µM Mg(OAc)2 , 25 µM BSA, 0.003% Triton, pH 7.2) was loaded into the syringe of the ITC instrument and a 50 µM solution of GST -SURF4 (49-60) in the same buffer was in the calorimetric cell. […]

Kd: 2350 ± 90 nM
Sequence: KRRHPKKC [CW peptides]
